This note sets out measurements from patent US20150351401A1 (priority 2012, published 2015).

Assay [1] relates to Puccinia recondita. In words: CG1 Preventative control of brown rust on wheat caused by Puccinia recondita (Puccrt P1), greenhouse. The class given is in vivo. The conditions noted are these: 75 ppm spray, wheat seedlings, inoculated next day; % diseased leaf area; untreated control 90. As for the experimental part:
The Spray Solutions were Prepared in Several Steps:
The stock solution were prepared: a mixture of acetone and/or dimethylsulfoxide and the wetting agent/emulsifier Wettol, which is based on ethoxylated alkylphenoles, in a relation (volume) solvent-emulsifier of 99 to 1 was added to the initial weight of the compound to give a total of 5 ml. Water was then added to total volume of 100 ml. This stock solution was diluted with the described solvent-emulsifier-water mixture to the given concentration.
CG1 Preventative Control of Brown Rust on Wheat Caused by Puccinia recondita (Puccrt P1)
The first two developed leaves of pot-grown wheat seedling were sprayed to run-off with an aqueous suspension, containing the concentration of active ingredient or their mixture as described below. The next day the plants were inoculated with spores of Puccinia recondita. To ensure the success the artificial inoculation, the plants were transferred to a humid chamber without light and a relative humidity of 95 to 99% and 20 to 24° C. for 24 h. Then the trial plants were cultivated for 6 days in a greenhouse chamber at 20-24° C. and a relative humidity between 65 and 70%. The extent of fungal attack on the leaves was visually assessed as % diseased leaf area.

The test system of assay [2] is Pyricularia oryzae. The class given is cell-based.
The mark [3] stands for this setting: comparison CM1, 7 days after inoculation.
The mark [4] stands for this setting: comparison CM2, 7 days after inoculation.

Where two headings read alike, the source gives them in different places.

`OC(Cc1ccc(-c2ccc(Cl)cc2)cc1Cl)(Cn1cncn1)C1(Cl)CC1` (stereo not drawn) [I-3, 1-[2-chloro-4-(4-chlorophenyl)phenyl]-2-(1-chlorocyclopropyl)-3-(1,2,4-triazol-1-yl)propan-2-ol]: in assay [1], the “Disease (%) at 75 ppm Puccrt P1” value was determined as 20%.

With `OC(Cc1ccccc1Cl)(Cn1ncnc1S)C1(Cl)CC1` (stereo not drawn) [drawing 129, reference compound], the “Growth (%) at 8 ppm Pyrior” value in assay [2] (setting [3]) stood at 41%.

`OC(Cc1ccc(-c2ccc(Cl)cc2)cc1Cl)(Cn1ncnc1S)C1(Cl)CC1` (stereo not drawn) [I-6]: the “Growth (%) at 8 ppm Pyrior” value in assay [2] (setting [3]) turned out to be 0%.

`OC(Cc1ccccc1Cl)(Cn1cncn1)C1(Cl)CC1` (stereo not drawn) [reference compound]: in assay [1], the “Disease (%) at 75 ppm Puccrt P1” value is listed as 50%.

As to `OC(Cc1ccc(Oc2ccc(Cl)cc2)cc1Cl)(Cn1cncn1)C1(Cl)CC1` (stereo not drawn) [I-4], the “Disease (%) at 75 ppm Puccrt P1” value in assay [1] was determined as 20%.

For `OC(Cc1ccc(Oc2ccc(Cl)cc2)cc1Cl)(Cn1cncn1)C1CC1` (stereo not drawn) [I-7, 1-[2-Chloro-4-(4-chlorophenoxyl)phenyl]-2-cyclopropyl-3-(1,2,4-triazol-1-yl)propan-2-ol], the “Growth (%) at 8 ppm Pyrior” value in assay [2] (setting [4]) was 0%.

For the compound `OC(Cc1ccccc1Cl)(Cn1ncnc1S)C1(Cl)CC1` (stereo not drawn) [drawing 135, reference compound], in assay [2] (setting [4]), the “Growth (%) at 8 ppm Pyrior” value is listed as 41%.

`OC(Cc1ccc(Oc2ccc(Cl)cc2)cc1Cl)(Cn1ncnc1S)C1(Cl)CC1` (stereo not drawn) [I-5]: the “Growth (%) at 8 ppm Pyrior” value in assay [2] (setting [3]) and in assay [2] (setting [4]) was 0% in each case.
